Results reported in patent US20220002314A1 (priority 2018, published 2022).
Like-named read-outs stand apart in the source and are kept apart here.

What was measured:
[1] = biological target: Human α2δ-1 subunit of Cav2.2 calcium channel (Homo sapiens, UniProt P54289); assay: biochemical; format: binding
Human μ-opioid receptor = Human μ-opioid receptor (Homo sapiens, UniProt P35372); assay: biochemical; format: binding
Sequence of Human μ-opioid receptor (P35372 whole entry): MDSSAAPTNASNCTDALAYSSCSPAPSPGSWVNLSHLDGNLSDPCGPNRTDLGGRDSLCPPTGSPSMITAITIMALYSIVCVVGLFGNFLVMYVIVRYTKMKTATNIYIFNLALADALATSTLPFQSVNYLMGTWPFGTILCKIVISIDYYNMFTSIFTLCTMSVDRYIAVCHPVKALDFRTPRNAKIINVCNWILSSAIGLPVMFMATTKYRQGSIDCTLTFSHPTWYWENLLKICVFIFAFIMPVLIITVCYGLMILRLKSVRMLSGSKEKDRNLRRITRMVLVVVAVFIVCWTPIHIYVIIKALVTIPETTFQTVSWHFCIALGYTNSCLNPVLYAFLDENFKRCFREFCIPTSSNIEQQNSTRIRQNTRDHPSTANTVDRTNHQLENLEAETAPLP

Sequence of Human α2δ-1 subunit of Cav2.2 calcium channel (P54289 25-1103): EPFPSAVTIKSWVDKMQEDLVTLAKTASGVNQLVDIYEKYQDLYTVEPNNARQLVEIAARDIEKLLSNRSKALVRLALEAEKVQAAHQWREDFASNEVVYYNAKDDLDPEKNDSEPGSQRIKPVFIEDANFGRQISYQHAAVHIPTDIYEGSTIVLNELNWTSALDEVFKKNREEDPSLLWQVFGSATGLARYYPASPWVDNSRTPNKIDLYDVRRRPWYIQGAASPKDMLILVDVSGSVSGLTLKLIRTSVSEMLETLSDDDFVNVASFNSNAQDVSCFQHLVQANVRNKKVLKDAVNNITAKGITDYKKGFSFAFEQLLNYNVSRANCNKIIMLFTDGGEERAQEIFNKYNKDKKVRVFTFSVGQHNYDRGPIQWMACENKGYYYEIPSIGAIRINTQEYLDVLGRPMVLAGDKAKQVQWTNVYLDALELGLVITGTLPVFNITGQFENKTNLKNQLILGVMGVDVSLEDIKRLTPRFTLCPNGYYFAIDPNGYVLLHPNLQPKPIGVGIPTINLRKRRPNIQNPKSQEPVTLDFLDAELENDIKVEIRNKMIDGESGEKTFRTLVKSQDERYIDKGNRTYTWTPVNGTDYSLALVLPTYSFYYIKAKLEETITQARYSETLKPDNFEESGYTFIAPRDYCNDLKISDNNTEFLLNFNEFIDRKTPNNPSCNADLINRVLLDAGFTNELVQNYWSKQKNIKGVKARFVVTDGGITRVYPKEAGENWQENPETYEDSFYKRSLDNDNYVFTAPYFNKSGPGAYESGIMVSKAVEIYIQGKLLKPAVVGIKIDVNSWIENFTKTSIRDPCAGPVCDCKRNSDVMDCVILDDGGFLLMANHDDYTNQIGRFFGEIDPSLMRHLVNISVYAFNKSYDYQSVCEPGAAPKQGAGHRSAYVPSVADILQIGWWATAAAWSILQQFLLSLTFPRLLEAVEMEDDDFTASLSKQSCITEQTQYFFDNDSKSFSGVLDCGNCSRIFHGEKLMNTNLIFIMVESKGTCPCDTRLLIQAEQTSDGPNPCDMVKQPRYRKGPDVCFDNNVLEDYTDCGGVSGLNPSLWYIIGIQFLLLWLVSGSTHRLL

| Structure (SMILES) | Ki ([1]; read-out: α2δ-1 binding) | Ki (Human μ-opioid receptor; read-out: μ-binding) | Ki [1] | Ki (Human μ-opioid receptor) | Ki ([1]; binding to α2δ-1 subunit of voltage-gated calcium channels expressed as Ki, + also Ki>5000 nM or inhibition between 1% and 50%, read-out: α2δ-1 binding) |
| --- | --- | --- | --- | --- | --- |
| CCCC(c1nc2cc(C(=O)O)ccc2c(=O)n1C)N1C[C@@H](C)N[C@@H](C)C1 (stereo partly drawn) [Example 178, 2-(1-((3S,5R)-3,5-Dimethylpiperazin-1-yl)butyl)-3-methyl-4-oxo-3,4-dihydroquinazoline-7-carboxylic acid] | 500 to 5000 nM | > 500 nM | – | – | – |
| CCC[C@H](c1nc2ccncc2c(=O)n1CC)N1CCN[C@@H](C)C1 [Example 66, 3-Ethyl-2-((R)-1-((S)-3-methylpiperazin-1-yl)butyl)pyrido[4,3-d]pyrimidin-4(3H)-one] | – | – | < 500 nM | > 500 nM | – |
| CCC[C@H](c1nc2ccc(NCC[C@]3(c4ccccn4)CCOC4(CCCC4)C3)cc2c(=O)n1CC)N1C[C@@H](C)N[C@@H](C)C1 [Example 159, 2-((R)-1-((3S,5R)-3,5-dimethylpiperazin-1-yl)butyl)-3-ethyl-6-((2-((S)-9-(pyridin-2-yl)-6-oxaspiro[4.5]decan-9-yl)ethyl)amino)quinazolin-4(3H)-one] | – | – | 500 to 5000 nM | > 500 nM | – |
| CCC[C@H](c1nc2cc(F)c(Cl)cc2c(=O)n1CC)N1CCN[C@@H](C)C1 [Example 53, 6-Chloro-3-ethyl-7-fluoro-2-((R)-1-((S)-3-methylpiperazin-1-yl)butyl)quinazolin-4(3H)-one] | – | – | < 500 nM | 100 to 500 nM | – |
| CCCC(c1nc2ccc(Br)cc2c(=O)n1CC)N1CCNCC1 (stereo not drawn) [Example 79, 6-Bromo-3-ethyl-2-(1-(piperazin-1-yl)butyl)quinazolin-4(3H)-one] | – | – | < 500 nM | > 500 nM | – |
| CCCC(c1nc2ccc(Br)c(C)c2c(=O)n1CC)N1C[C@@H](C)N[C@@H](C)C1 (stereo partly drawn) [Example 21, 6-bromo-2-(1-((3S,5R)-3,5-dimethylpiperazin-1-yl)butyl)-3-ethyl-5-methylquinazolin-4(3H)-one] | – | – | < 500 nM | > 500 nM | – |
| CCC[C@@H](c1nc2ccc(NCC[C@]3(c4ccccn4)CCOC4(CCCC4)C3)cc2c(=O)n1CC)N1C[C@@H](C)N[C@@H](C)C1 [Example 161, 2-((S)-1-((3S,5R)-3,5-dimethylpiperazin-1-yl)butyl)-3-ethyl-6-((2-((S)-9-(pyridin-2-yl)-6-oxaspiro[4.5]decan-9-yl)ethyl)amino)quinazolin-4(3H)-one] | – | – | > 5000 nM | > 500 nM | – |
| CCC[C@H](c1nc2ccc(Br)cc2c(=O)n1C)N1CCN[C@@H](C)C1 [Example 41, 6-Bromo-3-methyl-2-((R)-1-((S)-3-methylpiperazin-1-yl)butyl)quinazolin-4(3H)-one] | – | – | < 500 nM | 100 to 500 nM | – |
| CCCC(c1nc2cc(CO)ccc2c(=O)n1C)N1C[C@@H](C)N[C@@H](C)C1 (stereo partly drawn) [Example 172, 2-(1-((3S,5R)-3,5-Dimethylpiperazin-1-yl)butyl)-7-(hydroxymethyl)-3-methylquinazolin-4(3H)-one] | – | – | < 500 nM | > 500 nM | – |
| CCC[C@H](c1nc2ccc(F)c(F)c2c(=O)n1CC)N1CCN[C@@H](C)C1 [Example 218, 3-ethyl-5,6-difluoro-2-((R)-1-((S)-3-methylpiperazin-1-yl)butyl)quinazolin-4(3H)-one] | – | – | < 500 nM | 100 to 500 nM | – |
| CCC[C@H](c1nc2ccc(OC(F)(F)F)cc2c(=O)n1CC)N1CCN[C@@H](C)C1 [Example 204, 3-ethyl-2-((R)-1-((S)-3-methylpiperazin-1-yl)butyl)-6-(trifluoromethoxy)quinazolin-4(3H)-one] | – | – | < 500 nM | > 500 nM | – |
| CCC[C@H](c1nc2ccc(Br)cc2c(=O)n1CC)N1CCN(C)[C@H](C)C1 [Example 109, 6-Bromo-2-((R)-1-((R)-3,4-dimethylpiperazin-1-yl)butyl)-3-ethylquinazolin-4(3H)-one] | – | – | < 500 nM | 100 to 500 nM | – |
| CCC[C@@H](c1nc2ccc(Br)cc2c(=O)n1CC)N1C[C@@H](C)N[C@@H](C)C1 [Example 30, 6-bromo-2-((S)-1-((3S,5R)-3,5-dimethylpiperazin-1-yl)butyl)-3-ethylquinazolin-4(3H)-one] | – | – | 500 to 5000 nM | > 500 nM | – |
| CCC[C@@H](c1nc2ccccc2c(=O)n1C)N1C[C@@H](C)N[C@@H](C)C1 [Example 31, 2-((S)-1-((3S,5R)-3,5-dimethylpiperazin-1-yl)butyl)-3-methylquinazolin-4(3H)-one] | – | – | 500 to 5000 nM | > 500 nM | – |
| CCC[C@H](c1nc2ccccc2c(=O)n1CC)N1CCN[C@@H](C)C1 [Example 43, 3-Ethyl-2-((R)-1-((S)-3-methylpiperazin-1-yl)butyl)quinazolin-4(3H)-one] | – | – | < 500 nM | > 500 nM | – |
| CCCC(c1nc2cc(Br)ccc2c(=O)n1CC)N1C[C@@H](C)N[C@@H](C)C1 (stereo partly drawn) [Example 9, 7-bromo-2-(1-((3S,5R)-3,5-dimethylpiperazin-1-yl)butyl)-3-ethylquinazolin-4(3H)-one] | – | – | < 500 nM | > 500 nM | – |
| CCCC(c1nc2c(C)cc(Br)cc2c(=O)n1CC)N1C[C@@H](C)N[C@@H](C)C1 (stereo partly drawn) [Example 20, 6-bromo-2-(1-((3S,5R)-3,5-dimethylpiperazin-1-yl)butyl)-3-ethyl-8-methylquinazolin-4(3H)-one] | > 5000 nM | > 500 nM | – | – | – |

| Structure (SMILES) | Ki ([1]; read-out: α2δ-1 binding) | Ki (Human μ-opioid receptor; read-out: μ-binding) | Ki [1] | Ki (Human μ-opioid receptor) | Ki ([1]; binding to α2δ-1 subunit of voltage-gated calcium channels expressed as Ki, + also Ki>5000 nM or inhibition between 1% and 50%, read-out: α2δ-1 binding) |
| --- | --- | --- | --- | --- | --- |
| CCCC(c1nc2ccc(CCN(C)CCC(C)C)cc2c(=O)n1CC)N1C[C@@H](C)N[C@@H](C)C1 (stereo partly drawn) [Example 175, 2-(1-((3S,5R)-3,5-dimethylpiperazin-1-yl)butyl)-3-ethyl-6-(2-(isopentyl(methyl)amino)ethyl)quinazolin-4(3H)-one] | – | – | < 500 nM | > 500 nM | – |
| CCC[C@@H](c1nc2ccc(Br)cc2c(=O)n1CC)N1CCN[C@H](C)C1 [Example 100, 6-bromo-3-ethyl-2-((S)-1-((R)-3-methylpiperazin-1-yl)butyl)quinazolin-4(3H)-one] | – | – | > 5000 nM | > 500 nM | – |
| CCC[C@H](c1nc2ccc(F)cc2c(=O)n1C)N1CCN[C@@H](C)C1 [Example 205, 6-fluoro-3-methyl-2-((R)-1-((S)-3-methylpiperazin-1-yl)butyl)quinazolin-4(3H)-one] | – | – | < 500 nM | 100 to 500 nM | – |
| CCCC(c1nc2c(Br)c(N(Cc3cccc(OC)c3)C(=O)OC(C)(C)C)ccc2c(=O)n1CC)N1C[C@@H](C)N[C@@H](C)C1 (stereo partly drawn) [Example 162, tert-Butyl (8-bromo-2-(1-((3S,5R)-3,5-dimethylpiperazin-1-yl)butyl)-3-ethyl-4-oxo-3,4-dihydroquinazolin-7-yl)(3-methoxybenzyl)carbamate] | 500 to 5000 nM | > 500 nM | – | – | – |
| CCC[C@@H](c1nc2ccc(Br)cc2c(=O)n1CC)N1CCN[C@H](CF)C1 [Example 57, 6-bromo-3-ethyl-2-((S)-1-((S)-3-(fluoromethyl)piperazin-1-yl)butyl)quinazolin-4(3H)-one] | – | – | < 500 nM | > 500 nM | – |
| CCC[C@H](c1nc2ccc(O)cc2c(=O)n1CC)N1C[C@@H](C)N[C@@H](C)C1 [Example 35, 2-((R)-1-((3S,5R)-3,5-Dimethylpiperazin-1-yl)butyl)-3-ethyl-6-hydroxyquinazolin-4(3H)-one] | – | – | < 500 nM | > 500 nM | – |
| CCC[C@H](c1nc2ccc(Br)cc2c(=O)n1CC)N1CCN[C@@H](CCC(=O)O)C1 [Example 108, 3-((S)-4-((R)-1-(6-bromo-3-ethyl-4-oxo-3,4-dihydroquinazolin-2-yl)butyl)piperazin-2-yl)propanoic acid] | > 5000 nM | > 500 nM | – | – | – |
| CCCC(c1nc2c(Cl)cc(F)cc2c(=O)n1CC)N1CCNCC1 (stereo not drawn) [Example 90, 8-chloro-3-ethyl-6-fluoro-2-(1-(piperazin-1-yl)butyl)quinazolin-4(3H)-one] | – | – | > 5000 nM | 100 to 500 nM | – |
| CCCC(c1nc2ccc(Br)c(Cl)c2c(=O)n1CC)N1CCNCC1 (stereo not drawn) [Example 91, 6-bromo-5-chloro-3-ethyl-2-(1-(piperazin-1-yl)butyl)quinazolin-4(3H)-one] | – | – | < 500 nM | 100 to 500 nM | – |
| CCCC(c1nc2cc(-c3ccnc(OC)c3)ccc2c(=O)n1CC)N1C[C@@H](C)N[C@@H](C)C1 (stereo partly drawn) [Example 135, 2-(1-((3S,5R)-3,5-dimethylpiperazin-1-yl)butyl)-3-ethyl-7-(2-methoxypyridin-4-yl)quinazolin-4(3H)-one] | – | – | < 500 nM | > 500 nM | – |
| CCC[C@H](c1nc2c(F)cc(OC)c(Br)c2c(=O)n1CC)N1CCNCC1 [Example 40, (R)-5-bromo-3-ethyl-8-fluoro-6-methoxy-2-(1-(piperazin-1-yl)butyl)quinazolin-4(3H)-one] | 500 to 5000 nM | > 500 nM | – | – | – |
| CCC[C@H](c1nc2cc(F)c(OC)cc2c(=O)n1CC)N1CCN[C@@H](C)C1 [Example 213, 3-ethyl-7-fluoro-6-methoxy-2-((R)-1-((S)-3-methylpiperazin-1-yl)butyl)quinazolin-4(3H)-one] | – | – | < 500 nM | > 500 nM | – |
| CCC[C@H](c1nc2c(F)cc(Cl)cc2c(=O)n1CC)N1CCN[C@@H](C)C1 [Example 217, 6-chloro-3-ethyl-8-fluoro-2-((R)-1-((S)-3-methylpiperazin-1-yl)butyl)quinazolin-4(3H)-one] | – | – | < 500 nM | < 100 nM | – |
| CCC[C@H](c1nc2ccc(N3C[C@H](C)OC4(CCN(CCc5ccccc5)CC4)C3)cc2c(=O)n1CC)N1C[C@@H](C)N[C@@H](C)C1 [Example 156, 2-((R)-1-((3S,5R)-3,5-dimethylpiperazin-1-yl)butyl)-3-ethyl-6-((S)-2-methyl-9-phenethyl-1-oxa-4,9-diazaspiro[5.5]undecan-4-yl)quinazolin-4(3H)-one] | – | – | – | > 500 nM | 500 to 5000 nM |
| CCCC(c1nc2cc(C(=O)OC)ccc2c(=O)n1CC)N1C[C@@H](C)N[C@@H](C)C1 (stereo partly drawn) [Example 7, methyl 2-(1-((3S,5R)-3,5-dimethylpiperazin-1-yl)butyl)-3-ethyl-4-oxo-3,4-dihydroquinazoline-7-carboxylate] | – | – | < 500 nM | 100 to 500 nM | – |
| CCC[C@H](c1nc2c(F)cc(Br)cc2c(=O)n1CC)N1CCN[C@@H](C)C1 [Example 51, 6-Bromo-3-ethyl-8-fluoro-2-((R)-1-((S)-3-methylpiperazin-1-yl)butyl)quinazolin-4(3H)-one] | – | – | < 500 nM | 100 to 500 nM | – |
